According to US12691101B2, “Compound and method for preventing or treating of respiratory diseases comprising the same as an active ingredient” (YONSEI UNIVERSITY, UNIVERSITY - INDUSTRY FOUNDATION (UIF), priority 2019, dated 2026):

Target: T1, human AN01 (Homo sapiens, UniProt Q5XXA6, DEL476-501)
T1 construct: expressed in transfected cells; host or cells: FRT cells
Test: AN01 chloride channel activity in FRT cells
Format: cell-based
Description: (A) The inhibition of mouse pendrin (mPDS)-mediated Cl^−/I^− exchange activity by F56 was measured in CHO-K1 cells (mean±S.E., n=5). The indicated concentration of F56 was pretreated for 10 minutes. (B) Summary of dose-response for inhibition of the human pendrin (hPDS)-mediated (closed circle, FIG. (a), C) and mPDS-mediated (open circle) Cl^−/I^− exchange activity. (C-F) Representative traces of intracellular pH in CHO-K1 cells expressing SLC26A3, SLC26A6, SLC26A7 and SLC26A9 were shown. The application of Cl^− free solution induced intracellular alkalization by Cl^−/HCO3^− exchange. The indicated concentration of F56 was pretreated for 10 minutes. (G) the effect of F56 (100 μM) on the CFTR chloride channel activity was measured in FRT cells expressing human CFTR. […] (H) The effect of F56 (100 μM) on the AN01 chloride channel activity was measured in FRT cells expressing human AN01. […] (I) The effect of F56 on the hERG (Kv11.1) potassium channel activity was measured in HEK293T cells expressing human Kv11.1 (mean±S.E., n=4). […] (J) The effect of F56 on the 5-HT2A channel activity was measured in FRT cells expressing human 5-HT2A (mean±S.E., n=4). […]
(A) The effect of F10 (30 μM) on the CFTR channel was measured in FRT cells expressing human CFTR and mutant YFP. […] (B) The effect of F10 (30 μM) on the AN01 channel activity was measured in FRT cells expressing human and mutant YFP. […]

T1 sequence (Q5XXA6 with tags, fused parts or gaps isoform Q5XXA6-5 DEL539-564): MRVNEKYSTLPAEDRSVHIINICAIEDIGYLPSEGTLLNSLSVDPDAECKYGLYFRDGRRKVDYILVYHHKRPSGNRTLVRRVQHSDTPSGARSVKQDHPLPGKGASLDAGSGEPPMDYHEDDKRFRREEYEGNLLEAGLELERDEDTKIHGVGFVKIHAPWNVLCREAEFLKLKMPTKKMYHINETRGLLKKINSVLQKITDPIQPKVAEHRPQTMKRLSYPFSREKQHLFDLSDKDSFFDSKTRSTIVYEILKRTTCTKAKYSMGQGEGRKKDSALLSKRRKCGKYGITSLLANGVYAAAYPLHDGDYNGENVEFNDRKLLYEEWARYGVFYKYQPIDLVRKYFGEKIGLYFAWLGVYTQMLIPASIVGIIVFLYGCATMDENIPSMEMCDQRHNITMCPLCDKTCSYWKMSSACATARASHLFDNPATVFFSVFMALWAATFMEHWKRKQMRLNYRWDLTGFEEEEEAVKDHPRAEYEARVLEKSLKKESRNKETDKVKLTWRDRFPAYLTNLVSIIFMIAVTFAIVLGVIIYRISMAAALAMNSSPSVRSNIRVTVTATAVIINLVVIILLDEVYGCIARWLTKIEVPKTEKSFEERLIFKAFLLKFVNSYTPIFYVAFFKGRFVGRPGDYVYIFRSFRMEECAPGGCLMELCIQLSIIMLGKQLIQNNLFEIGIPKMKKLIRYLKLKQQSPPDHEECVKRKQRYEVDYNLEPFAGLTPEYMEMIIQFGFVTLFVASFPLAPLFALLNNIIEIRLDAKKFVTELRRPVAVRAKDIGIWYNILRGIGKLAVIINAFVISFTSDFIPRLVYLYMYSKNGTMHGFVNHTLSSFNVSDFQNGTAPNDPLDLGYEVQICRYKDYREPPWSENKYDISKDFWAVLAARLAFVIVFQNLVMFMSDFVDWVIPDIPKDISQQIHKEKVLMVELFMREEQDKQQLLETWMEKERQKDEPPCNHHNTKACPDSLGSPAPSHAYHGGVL

SMILES | effect on AN01 activity (100 μM, FRT cells, ATP-activated) | effect on AN01 channel activity (30 μM, FRT cells with mutant YFP)
CC(C)(C)c1ccc(C2=NC(=Cc3cccs3)C(=O)O2)cc1 [F56, 2-(4-(tert-butyl)phenyl)-4-(thiophen-2-ylmethylene)oxazol-5(4H)-one] | not affected | 
CC(C)(C)c1ccc(C2=NC(=Cc3ccc[nH]3)C(=O)O2)cc1 [F10, 4-((1H-pyrrol-2-yl)methylene)-2-(4-(tert-butyl)phenyl)oxazol-5 (4H)-one] |  | did not show any effect
